Measurements published in patent US20240131029A1, “SELECTIVE ROCK2 INHIBITION FOR TREATMENT OF EDEMA AND ASSOCIATED CONDITIONS” (President and Fellows of Harvard College, priority 2021, published 2024).
“Also recorded” adds a separate entry of the source.

How the values were obtained:
[1] = tested on: human dermal lymphatic endothelial cells (LECs), engineered lymphatic vessel; assay: lymphatics-on-chip lymphatic drainage under cytokine challenge; format: cell-based
From the text: (§1) To overcome the issues outlined above, a microfluidic 3D culture model featuring an engineered lymphatic vessel that can drain interstitial fluid was developed. The device includes a polydimethylsiloxane (PDMS) housing and two parallel cylindrical channels within a 3D collagen hydrogel (FIG. 1A). Human dermal lymphatic endothelial cells (LECs) seeded in one channel generated an engineered lymphatic vessel (FIG. 1A) that expressed lymphatic endothelial markers with appropriate apical-basal orientation (FIG. 1A and FIG. 1B). Furthermore, stimulation with the lymphangiogenic vascular endothelial growth factor C (VEGFC) triggered lymphatic sprouting (FIG. 1C). To characterize the integrity of the lymphatic endothelium within the device, their junctional organization was examined by immunofluorescence.
To functionally assess this rudimentary lymphatic vessel required a measure of lymphatic drainage. To accomplish this, the second, cell-free channel was pressurized with a surrogate lymph fluid composed of fluorescently labeled lymph molecules, including fatty acids, phospholipids, albumin, and insoluble particles (data not shown). The interstitial fluid pressure triggered convective fluid transport into the engineered lymphatic vessel. Lymph fluid drained by the lymphatic vessel accumulated in the connected reservoirs and was collected for analysis. Human dermal blood microvascular endothelial cells-generated blood vessels or cell-free channels were used as controls. […] Time-lapse microscopy of drainage further confirmed that fluid entered the luminal space of lymphatic vessels faster than that of blood vessels (FIG. 1H and data not shown).
Inflammation is a primary driver of lymphedema (2, 9, 10), so the next set of experiments tested whether inflammatory cytokines could impair drainage in this system. […] To begin to characterize what signaling pathways might be involved in tightening the lymphatic junctions, inhibitors that might impact IL-2-induced junction assembly were identified (data not shown): PP2, a Src-family of protein tyrosine kinase inhibitor; Wortmannin, a PI3K inhibitor; Y27632, a ROCK inhibitor; GGTI298, a Rap1 inhibitor; NSC23766, a Rac1 inhibitor; Blebbistatin, a Myosin II inhibitor; and Cpd22, an integrin-linked kinase inhibitor.

[2] = tested on: lymphedema in mouse tails; assay: mouse tail lymphedema model (surgical ligation of peripheral lymphatics); format: in vivo
Protocol: To investigate the potential efficacy of ROCK inhibition in lymphedema, Y27632 was tested in an established mouse model of lymphedema (13, 14). Lymphedema was induced by surgical ligation of peripheral lymphatics in mouse tails (FIG. 2G). […] Tail-injured mice were left without any treatment for one month.

LEC junctions = assay: junction staining of engineered lymphatic vessels (immunofluorescence); format: cell-based, human; details: 20 μM, IL-2 challenge
From the text: as §1
Inflammation is a primary driver of lymphedema (2, 9, 10), so the next set of experiments tested whether inflammatory cytokines could impair drainage in this system. […]

tail vein edema = assay: mouse tail edema following cautery injury; format: in vivo, mice; details: following cautery injury (FIG. 4A)
Protocol: Tail volume changes were quantified (FIG. 4B), and drainage to the iliac lymph nodes was assesses 1 hour after intradermal injection of Alexa647-conjugated albumin into tails of mice treated with KD025 or vehicle (FIG. 4C).

[3] = clinically used ROCK inhibitors, FIG. 2C

C[C@@H](N)[C@H]1CC[C@H](C(=O)Nc2ccncc2)CC1 [Compound Y27632]
lymphatic drainage ([1]; GM-CSF and G-CSF treated conditions (FIG. 2A, 2B)): normalized
lymphatic drainage ([1]; IL-2 treated lymphatic vessels): completely normalized the impaired drainage
drainage to proximal lymph nodes compared to untreated control mice ([2]; 1 h after intradermal Alexa647-conjugated albumin (FIG. 2H)): tenfold higher drainage
time to complete resolution of lymphedema following treatment ([2]; delayed treatment, one month after tail injury): ≤ 2 weeks
reversal of existing chronic lymphedema ([2]; delayed treatment, one month after tail injury (FIG. 2I, 2J)): completely resolved the lymphedema
lymphedema (tail volume change), prevention ([2]; treatment after surgical ligation (FIG. 2G)): completely prevented lymphedema

O=S(=O)(c1cccc2cnccc12)N1CCCNCC1 [Fasudil]
lymphatic drainage [1, 3]: similarly improved lymphatic drainage

CC(C)NC(=O)COc1cccc(-c2nc(Nc3ccc4[nH]ncc4c3)c3ccccc3n2)c1 [KD025, 2-[3-[4-(1H-indazol-5-ylamino)-2-quinazolinyl]phenoxy]-N-(1-methylethyl)-acetamide]
lymphatic drainage ([1]; 20 μM, IL-2 challenge (FIG. 3L)): reversed; also recorded: sufficient to reduce lymphatic drainage
tightening of the LEC junctions (LEC junctions): reversed tightening of the LEC junctions
visible tail vein edema swelling (tail vein edema): reduced visible tail vein edema swelling

C[C@H]1CNCCCN1S(=O)(=O)c1cccc2cncc(F)c12 [Ripasudil]
lymphatic drainage [1, 3]: similarly improved lymphatic drainage
